Reference: patent US9995734B2, “Human T cell line assay for evaluating the immunologic identity of glatiramer acetate preparations” (Mylan Inc., priority 2013, dated 2018)
“And” between values parts separate entries of the source, which are not always exact repeats. Identical values can stand only once.

Legend:
Format in all cases: cell-based, human
[1] = system: Donor 1 GMA Expanded T-Cell Lines (222-AG11, 222-AG12, 222-BA11, 222-BC11); test: ATP proliferation assay (CellTiter Glo), Donor 1 GMA expanded T-cell lines, incl. reactivity to non-canonical GA peptides; settings: for Proliferation (luminescent ATP assay), Mean: T-cell line 222-AG12, autologous B-LCL
Procedure, shortened: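 GMA-expanded T-cell lines from Donor 1 restimulated with GMA (0–100 μg/mL), or with non-canonical GA peptides, COP and GMA (0–30 μg/mL; T cells 2×10^5 cells/mL). Mitomycin C-treated autologous PBMC or B-LCL served as APC. Proliferation read by CellTiter-Glo ATP luminescence after 3 days at 37° C.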

Donor 3 GMA T-Cell Lines = test: ATP proliferation assay (CellTiter Glo), Donor 3 GMA T-cell lines, incl. reactivity to non-canonical GA peptides; settings: for proliferation response to non-canonical GA peptides: 0, 1, 3, 10 μg/mL; for Non-Canonical Peptide Reactivity: at least one proliferation value >=2 times no antigen control
Donor 3 COP T-Cell Lines = test: ATP proliferation assay (CellTiter Glo), Donor 3 COP T-cell lines, incl. reactivity to non-canonical GA peptides; settings: for Non-Canonical Peptide Reactivity: at least one proliferation value >=2 times no antigen control

poly (Glu-Lys; 1:4) [GL 14] was tested, and the “Non-Canonical Peptide Non-Reactivity” value ([1]; 222-AG12, proliferation <2 times no antigen control) was “GL 14”, the “Nonreactive T-Cell Line” value ([1]; Donor 1 GMA expanded lines, stimulation with the non-canonical GA peptide) was 222-AG12 (Donor 1) and the “Proliferation (luminescent ATP assay), Mean” value (shortened to “Proliferation … Mean”) ([1]; 1 ug/mL antigen) was 3531 RLU. For the same substance, the “Proliferation … Mean” value ([1]; 10 ug/mL antigen) was 55 RLU, the “Proliferation … Mean” value ([1]; 30 ug/mL antigen) was 43 RLU and the “proliferation response to non-canonical GA peptides” value (Donor 3 GMA T-Cell Lines; 165-B5G and 165-E7G, Day 55) was “responded well”. For the same substance, the “Non-Canonical Peptide Reactivity” value (Donor 3 GMA T-Cell Lines; 165-B5G) was “GL 14”, the “Non-Canonical Peptide Reactivity” value (Donor 3 GMA T-Cell Lines; 165-C5G) was “GL 14” and the “Non-Canonical Peptide Reactivity” value (Donor 3 GMA T-Cell Lines; 165-E7G) was “GL 14”. The “Non-Canonical Peptide Reactivity” value (Donor 3 GMA T-Cell Lines; 165-E9G) was “GL 14”, the “Non-Canonical Peptide Reactivity” value (Donor 3 GMA T-Cell Lines; 165-F5G) was “GL 14” and the “proliferation response to non-canonical GA peptides” value (Donor 3 GMA T-Cell Lines; 165-F10G, 165-C5G, 165-H11G, 165-C7C, 165-E9G, 165-F5G, minimum 55 days in culture) was “responded well”. The “Non-Canonical Peptide Reactivity” value (Donor 3 GMA T-Cell Lines; 165-F10G) was “GL 14”, the “Non-Canonical Peptide Reactivity” value (Donor 3 GMA T-Cell Lines; 165-H11G) was “GL 14” and the “Reactive T-Cell Line” value (Donor 3 GMA T-Cell Lines; Donor 3 GMA lines, at least a 50% increase in proliferation relative to a control after stimulation with the non-canonical GA peptide) was 165-B5G (Donor 3) and 165-C5G (Donor 3) and 165-E7G (Donor 3) and 165-E9G (Donor 3) and 165-F5G (Donor 3) and 165-F10G (Donor 3) and 165-H11G (Donor 3). For the same substance, the “Proliferation … Mean” value (Donor 3 GMA T-Cell Lines; T-cell line 165-B5G, 1.25 μg/mL antigen, Day 55 of culturing, No Antigen Value 846) was 3912 RLU, the “Proliferation … Mean” value (Donor 3 GMA T-Cell Lines; T-cell line 165-B5G, 2.5 μg/mL antigen, Day 55 of culturing, No Antigen Value 846) was 3245 RLU and the “Proliferation … Mean” value (Donor 3 GMA T-Cell Lines; T-cell line 165-B5G, 5 μg/mL antigen, Day 55 of culturing, No Antigen Value 846) was 501 RLU. For the same substance, the “Proliferation … Mean” value (Donor 3 GMA T-Cell Lines; T-cell line 165-B5G, 10 μg/mL antigen, Day 55 of culturing, No Antigen Value 846) was 45 RLU, the “Proliferation … Mean” value (Donor 3 GMA T-Cell Lines; T-cell line 165-C5G, 1.25 μg/mL antigen, autologous B-LCL) was 1412 RLU and the “Proliferation … Mean” value (Donor 3 GMA T-Cell Lines; T-cell line 165-C5G, 2.5 μg/mL antigen, autologous B-LCL) was 5418 RLU. The “Proliferation … Mean” value (Donor 3 GMA T-Cell Lines; T-cell line 165-C5G, 5 μg/mL antigen, autologous B-LCL) was 703 RLU, the “Proliferation … Mean” value (Donor 3 GMA T-Cell Lines; T-cell line 165-C5G, 10 μg/mL antigen, autologous B-LCL) was 43 RLU and the “Proliferation … Mean” value (Donor 3 GMA T-Cell Lines; T-cell line 165-E7G, 1.25 μg/mL antigen, autologous B-LCL, Day 55) was 10001 RLU. The “Proliferation … Mean” value (Donor 3 GMA T-Cell Lines; T-cell line 165-E7G, 2.5 μg/mL antigen, autologous B-LCL, Day 55) was 14902 RLU, the “Proliferation … Mean” value (Donor 3 GMA T-Cell Lines; T-cell line 165-E7G, 5 μg/mL antigen, autologous B-LCL, Day 55) was 4087 RLU and the “Proliferation … Mean” value (Donor 3 GMA T-Cell Lines; T-cell line 165-E7G, 10 μg/mL antigen, autologous B-LCL, Day 55) was 58 RLU. For the same substance, the “Proliferation … Mean” value (Donor 3 GMA T-Cell Lines; T-cell line 165-E9G, 1.25 μg/mL antigen, autologous B-LCL) was 145 RLU, the “Proliferation … Mean” value (Donor 3 GMA T-Cell Lines; T-cell line 165-E9G, 2.5 μg/mL antigen, autologous B-LCL) was 801 RLU and the “Proliferation … Mean” value (Donor 3 GMA T-Cell Lines; T-cell line 165-E9G, 5 μg/mL antigen, autologous B-LCL) was 268 RLU. For the same substance, the “Proliferation … Mean” value (Donor 3 GMA T-Cell Lines; T-cell line 165-E9G, 10 μg/mL antigen, autologous B-LCL) was 38 RLU, the “Proliferation … Mean” value (Donor 3 GMA T-Cell Lines; T-cell line 165-F5G, 1.25 μg/mL antigen, autologous B-LCL) was 559 RLU and the “Proliferation … Mean” value (Donor 3 GMA T-Cell Lines; T-cell line 165-F5G, 2.5 μg/mL antigen, autologous B-LCL) was 2779 RLU. The “Proliferation … Mean” value (Donor 3 GMA T-Cell Lines; T-cell line 165-F5G, 5 μg/mL antigen, autologous B-LCL) was 89 RLU, the “Proliferation … Mean” value (Donor 3 GMA T-Cell Lines; T-cell line 165-F5G, 10 μg/mL antigen, autologous B-LCL) was 38 RLU and the “Proliferation … Mean” value (Donor 3 GMA T-Cell Lines; T-cell line 165-F10G, 1.25 μg/mL antigen, autologous B-LCL) was 5153 RLU. The “Proliferation … Mean” value (Donor 3 GMA T-Cell Lines; T-cell line 165-F10G, 2.5 μg/mL antigen, autologous B-LCL) was 19489 RLU, the “Proliferation … Mean” value (Donor 3 GMA T-Cell Lines; T-cell line 165-F10G, 5 μg/mL antigen, autologous B-LCL) was 1990 RLU and the “Proliferation … Mean” value (Donor 3 GMA T-Cell Lines; T-cell line 165-F10G, 10 μg/mL antigen, autologous B-LCL) was 53 RLU. The “Proliferation … Mean” value (Donor 3 GMA T-Cell Lines; T-cell line 165-H11G, 1.25 μg/mL antigen, autologous B-LCL) was 144 RLU, the “Proliferation … Mean” value (Donor 3 GMA T-Cell Lines; T-cell line 165-H11G, 2.5 μg/mL antigen, autologous B-LCL) was 4416 RLU and the “Proliferation … Mean” value (Donor 3 GMA T-Cell Lines; T-cell line 165-H11G, 5 μg/mL antigen, autologous B-LCL) was 118 RLU. The “Proliferation … Mean” value (Donor 3 GMA T-Cell Lines; T-cell line 165-H11G, 10 μg/mL antigen, autologous B-LCL) was 40 RLU, the “Non-Canonical Peptide Reactivity” value (Donor 3 COP T-Cell Lines; 165-C4C) was “GL 14” and the “Non-Canonical Peptide Reactivity” value (Donor 3 COP T-Cell Lines; 165-C7C) was “GL 14”. The “proliferation response to non-canonical GA peptides” value (Donor 3 COP T-Cell Lines; 165-F3C (Day 77) and 165-C4C (Day 66), 0, 1, 3, 10 μg/mL) was “responded well”, the “Non-Canonical Peptide Reactivity” value (Donor 3 COP T-Cell Lines; 165-F3C) was “GL 14” and the “proliferation response to non-canonical GA peptides” value (Donor 3 COP T-Cell Lines; 165-F6C, Day 76, 0, 1.25, 2.5, 5, 10 μg/mL) was “reacted”. The “response relative to the no antigen control” value (Donor 3 COP T-Cell Lines; 165-F6C, Day 76, dose of 2.5 μg/mL antigen) was 4.4 fold, the “Non-Canonical Peptide Reactivity” value (Donor 3 COP T-Cell Lines; 165-F6C) was “GL 14” and the “Reactive T-Cell Line” value (Donor 3 COP T-Cell Lines; Donor 3 COP lines, at least a 50% increase in proliferation relative to a control after stimulation with the non-canonical GA peptide) was 165-C4C (Donor 3) and 165-C7C (Donor 3) and 165-F6C (Donor 3) and 165-F3C (Donor 3). The “Proliferation … Mean” value (Donor 3 COP T-Cell Lines; T-cell line 165-C4C, 1 μg/mL antigen, Day 66 of culture, 0 μg/mL 1881) was 2833, the “Proliferation … Mean” value (Donor 3 COP T-Cell Lines; T-cell line 165-C4C, 3 μg/mL antigen, Day 66 of culture, 0 μg/mL 1881) was 4920 and the “Proliferation … Mean” value (Donor 3 COP T-Cell Lines; T-cell line 165-C4C, 10 μg/mL antigen, Day 66 of culture, 0 μg/mL 1881) was 49. The “Proliferation … Mean” value (Donor 3 COP T-Cell Lines; T-cell line 165-C7C, 1.25 μg/mL antigen, autologous B-LCL) was 274 RLU, the “Proliferation … Mean” value (Donor 3 COP T-Cell Lines; T-cell line 165-C7C, 2.5 μg/mL antigen, autologous B-LCL) was 1797 RLU and the “Proliferation … Mean” value (Donor 3 COP T-Cell Lines; T-cell line 165-C7C, 5 μg/mL antigen, autologous B-LCL) was 537 RLU. The “Proliferation … Mean” value (Donor 3 COP T-Cell Lines; T-cell line 165-C7C, 10 μg/mL antigen, autologous B-LCL) was 39 RLU, the “Proliferation … Mean” value (Donor 3 COP T-Cell Lines; T-cell line 165-F3C, 1 μg/mL antigen, Day 77 of culture, 0 μg/mL 1563) was 2542 and the “Proliferation … Mean” value (Donor 3 COP T-Cell Lines; T-cell line 165-F3C, 3 μg/mL antigen, Day 77 of culture, 0 μg/mL 1563) was 7091. For the same substance, the “Proliferation … Mean” value (Donor 3 COP T-Cell Lines; T-cell line 165-F3C, 10 μg/mL antigen, Day 77 of culture, 0 μg/mL 1563) was 65, the “Proliferation … Mean” value (Donor 3 COP T-Cell Lines; T-cell line 165-F6C, 1.25 μg/mL antigen, Day 76 of culture, No Antigen value 517) was 699 and the “Proliferation … Mean” value (Donor 3 COP T-Cell Lines; T-cell line 165-F6C, 2.5 μg/mL antigen, Day 76 of culture, No Antigen value 517) was 2,267. The “Proliferation … Mean” value (Donor 3 COP T-Cell Lines; T-cell line 165-F6C, 5 μg/mL antigen, Day 76 of culture, No Antigen value 517) was 114 and the “Proliferation … Mean” value (Donor 3 COP T-Cell Lines; T-cell line 165-F6C, 10 μg/mL antigen, Day 76 of culture, No Antigen value 517) was 33.
